Values belong to the compound of their own block, whether it stands above or below them. *1 amine or outer side, *2 acyl side, *3 side chain or, on linkers, in order; H or OH if unused. Where a SMILES comes first, the peptide text is derived from it. Bridges are numbered along the chain shown (N, C = ends). [ ]: non-standard residue; d: D form. X1 = O=C(O)CCCCCCCCCCCCCCCCCCC(=O)N[C@@H](CCCCNC(=O)COCCOCCNC(=O)COCCOCCNC(=O)CCC(=O)N(CCNC(=O)C[*:1])CCNC(=O)C[*:2])C(=O)O; Phe(2-F) = N[C@@H](Cc1ccccc1F)C(=O)O; αMeL = CC(C)C[C@](C)(N)C(=O)O; αMeK = C[C@](N)(CCCCN)C(=O)O; αMeS = C[C@](N)(CO)C(=O)O; Aib = CC(C)(N)C(=O)O
Columns and labels:
GLP-1R = molecular target: T1, GLP-1R (Homo sapiens, UniProt P43220); assay: CreLuc method (CRE-luciferase reporter), HEK293/pGM-CREB-L-Luc/GLP-1R pool; assay type: cell-based; conditions: 6 h incubation, read-out: EC50 (pM) for each receptor GLP-1R
T1 construct: expressed in transfected cells
Procedure, shortened: (§1)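 Stable HEK293 pools co-expressing each receptor with a CRE-luciferase reporter were plated at 20,000 cells/well in freestyle medium and treated with compound dilution series for 6 h at 37 °C. Luminescence was read with ONE-GLO to derive EC50.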

GIPR [1] = molecular target: T2, GIPR (Homo sapiens, UniProt P48546); assay: CreLuc method (CRE-luciferase reporter), HEK293/pGM-CREB-L-Luc/GIPR pool; assay type: cell-based; conditions: 6 h incubation, read-out: EC50 (pM) for each receptor GIPR
T2 construct: expressed in transfected cells
T2 sequence (P48546 22-466): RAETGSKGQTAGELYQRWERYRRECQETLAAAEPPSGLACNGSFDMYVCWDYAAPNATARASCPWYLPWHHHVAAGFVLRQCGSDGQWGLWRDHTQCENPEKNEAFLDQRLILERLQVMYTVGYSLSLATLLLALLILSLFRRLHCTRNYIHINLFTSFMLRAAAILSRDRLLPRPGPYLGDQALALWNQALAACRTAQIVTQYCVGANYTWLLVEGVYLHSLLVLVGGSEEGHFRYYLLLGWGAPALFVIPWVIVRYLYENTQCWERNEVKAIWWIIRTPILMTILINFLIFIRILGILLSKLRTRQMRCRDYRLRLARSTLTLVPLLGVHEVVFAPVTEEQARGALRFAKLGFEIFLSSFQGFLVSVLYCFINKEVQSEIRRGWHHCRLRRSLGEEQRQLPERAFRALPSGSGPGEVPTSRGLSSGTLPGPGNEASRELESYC
Procedure, shortened: as §1

GCGR [2] = molecular target: T3, GCGR (Homo sapiens, UniProt P47871); assay: CreLuc method (CRE-luciferase reporter), 293HEK/pGM-CREB-L-Luc/GCGR pool; assay type: cell-based; conditions: 6 h incubation, read-out: EC50 (pM) for each receptor GCGR
T3 construct: expressed in transfected cells
Procedure, shortened: as §1

GIPR [3] = molecular target: T2, GIPR; assay: cAMP method (HTRF cAMP detection kit), HEK293/pGM-CREB-L-Luc/GIP pool; assay type: cell-based; conditions: read-out: EC50 (pM) for each receptor GIPR
Protocol: (§2) 2. Insulinotropic analogues can bind to target receptors on the cell membrane, activate the receptors, and induce release. The activity of the test substance can be determined using the HTRF method with a cAMP detection kit. Therefore, the cAMP method can be used to detect the target peptide derivatives (or polypeptide derivatives, i.e., TG1-TG86) prepared in Example 1 and Example 2. […] The test cell line was selected, treated with cAMP-specific trypsin for digestion. 3 mL of serum-free DMEM culture medium was added, and the cells were pipetted, resuspended, and counted. 5 µL of IBMX (prepared with serum-free DMEM medium, 0.5 mM) and test cells (5 µL/7500 cells/well) were added in a 384-well plate sequentially. The plate was incubated at 37°C under 5% CO2 for 30 min, followed by the addition of cAMP-d2 (5 µL, 1x) and Anti-cAMP-Cryptate (5 µL, 1x). The mixture was kept at room temperature for 1 h, after which the HTRF value was measured using a chemiluminescent microplate reader, and the determination result was recorded. […] Table 4: EC50 values for target peptide derivatives

GCGR [4] = molecular target: T3, GCGR; assay: cAMP method (HTRF cAMP detection kit), HEK293/pGM-CREB-L-Luc/GCG pool; assay type: cell-based; conditions: read-out: EC50 (pM) for each receptor GCGR
Protocol: as §2

in vivo = assay: in vivo; parameters: species or system male SD rats; conditions: rat
Protocol: The pharmacokinetic behavior of target peptide derivatives (or polypeptide derivatives) prepared in Example 1 and Example 2, i.e., TG1-TG94 in rodents was tested. The specific steps are as follows:
The target peptide derivatives (TG1-TG94) to be tested were administered to male SD rats via subcutaneous injection (SC, 3 mg/kg; drug vehicle: PBS, concentration: 1.5 mg/mL; administration volume: 2 mL) and intravenous injection (IV, 1 mg/kg; drug vehicle: PBS, concentration: 0.5 mg/mL; administration volume: 2 mL) as a single dose, respectively. Whole blood samples were collected from the jugular vein or other appropriate vein at the following time points after administration: for SC, 15 min, 30 min, 1 h, 2 h, 4 h, 6 h, 8 h, 24 h, 48 h, 72 h, 96 h, 120 h, and 168 h; for IV, 5 min, 15 min, 30 min, 1 h, 2 h, 4 h, 8 h, 24 h, 48 h, 72 h, 96 h, 120 h, and 168 h. 0.2 mL of blood was collected and transferred into a labeled EDTA-K2 anticoagulant tube. The tube was gently inverted to ensure thorough mixing of the anticoagulant (EDTA-K2) with the blood and immediately placed on wet ice. Plasma separation was performed as soon as possible by centrifugation under the following conditions: 4°C, 6800xg, for 6 min. The plasma samples were stored in a refrigerator at no higher than -20°C and used for analysis when needed.
Under the condition of yellow light in an ice-water bath, except for blank samples, 300 µL of precipitant containing an internal standard was added to a 96-well plate containing 20 µL of standard curve sample, quality control sample, or unknown sample; 300 µL of acetonitrile was added to the blank sample. The mixture was vortexed, mixed well, and then centrifuged. 150 µL of the supernatant after centrifugation was transferred to a new 96-well plate, and 150 µL of ultrapure water was added and mixed well. The above samples were subjected to quantitative analysis using LC-MS analysis with XB-C18 (2.1 * 100 mm, 3 µm) chromatography for gradient elution. The mobile phases used were: mobile phase A = 0.1% formic acid-water; mobile phase B = acetonitrile. Phoenix WinNonlin software was used to calculate the pharmacokinetic parameters. […] Table 5A: Pharmacokinetic parameters of target peptide derivatives

T3 sequence (P47871 26-477, species assumed): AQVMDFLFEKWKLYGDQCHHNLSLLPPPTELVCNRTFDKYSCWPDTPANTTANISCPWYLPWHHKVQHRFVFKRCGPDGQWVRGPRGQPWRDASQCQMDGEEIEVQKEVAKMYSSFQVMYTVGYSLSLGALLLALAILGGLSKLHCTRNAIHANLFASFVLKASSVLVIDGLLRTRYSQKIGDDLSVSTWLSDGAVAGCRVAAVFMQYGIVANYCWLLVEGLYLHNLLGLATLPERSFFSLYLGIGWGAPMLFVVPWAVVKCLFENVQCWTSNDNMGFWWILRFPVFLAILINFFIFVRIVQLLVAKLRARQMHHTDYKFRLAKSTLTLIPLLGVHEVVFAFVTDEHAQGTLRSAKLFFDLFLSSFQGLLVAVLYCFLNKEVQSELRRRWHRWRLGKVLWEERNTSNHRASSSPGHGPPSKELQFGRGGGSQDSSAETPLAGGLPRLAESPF
T1 sequence (P43220 24-463, species assumed): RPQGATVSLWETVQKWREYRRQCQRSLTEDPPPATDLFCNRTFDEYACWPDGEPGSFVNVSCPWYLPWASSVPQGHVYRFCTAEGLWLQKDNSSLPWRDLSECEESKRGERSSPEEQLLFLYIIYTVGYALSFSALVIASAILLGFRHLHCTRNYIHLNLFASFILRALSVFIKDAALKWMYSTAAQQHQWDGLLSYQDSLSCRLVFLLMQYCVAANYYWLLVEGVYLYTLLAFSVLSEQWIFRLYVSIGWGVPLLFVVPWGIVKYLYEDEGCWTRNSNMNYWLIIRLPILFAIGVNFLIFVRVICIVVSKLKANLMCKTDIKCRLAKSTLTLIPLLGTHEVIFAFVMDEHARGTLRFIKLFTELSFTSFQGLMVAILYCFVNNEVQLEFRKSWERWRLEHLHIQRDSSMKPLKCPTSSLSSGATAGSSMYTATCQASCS

SMILES: CC[C@H](C)[C@H](NC(=O)[C@H](Cc1ccccc1)NC(=O)[C@H](C)NC(=O)[C@@H]1CSCC(=O)NCCN(C(=O)CCC(=O)NCCOCCOCC(=O)NCCOCCOCC(=O)NCCCC[C@H](NC(=O)CCCCCCCCCCCCCCCCCCC(=O)O)C(=O)O)CCNC(=O)CSC[C@H](NC(=O)[C@](C)(CCCCN)NC(=O)[C@H](CC(=O)O)NC(=O)[C@H](CC(C)C)NC(=O)[C@](C)(CC(C)C)NC(=O)[C@@H](NC(=O)[C@](C)(CO)NC(=O)[C@H](Cc2ccc(O)cc2)NC(=O)[C@H](CC(=O)O)NC(=O)[C@H](CO)NC(=O)[C@@H](NC(=O)[C@H](Cc2ccccc2F)NC(=O)[C@@H](NC(=O)CNC(=O)[C@H](CCC(N)=O)NC(=O)C(C)(C)NC(=O)[C@@H](N)Cc2ccc(O)cc2)[C@@H](C)O)[C@@H](C)O)[C@@H](C)CC)C(=O)N[C@@H](C)C(=O)N[C@@H](CCC(N)=O)C(=O)N1)C(=O)N[C@@H](CCC(=O)O)C(=O)N[C@@H](Cc1ccc(O)cc1)C(=O)N[C@@H](CC(C)C)C(=O)N[C@@H](CC(C)C)C(=O)N[C@@H](C)C(=O)NCC(=O)NCC(=O)N1CCC[C@H]1C(=O)N[C@@H](CO)C(=O)N[C@@H](CO)C(=O)NCC(=O)N[C@@H](C)C(=O)N1CCC[C@H]1C(=O)N1CCC[C@H]1C(=O)N1CCC[C@H]1C(=O)N[C@@H](CO)C(N)=O [TG62] (H-Y[Aib]QGT[Phe(2-F)]TSDY[αMeS]I[αMeL]LD[αMeK]CAQCAFIEYLLAGGPSSGAPPPS-NH2; linker 17-20 via X1)
EC50 (GLP-1R): 371 pM
EC50 (GIPR [1]): 27.9 pM
EC50 (GCGR [2]): 783 pM
EC50 (GIPR [3]): 6 pM
EC50 (GCGR [4]): 62.2 pM

EC50 (GLP-1R): 171 pM
EC50 (GIPR [1]): 27.6 pM
EC50 (GCGR [2]): 172 pM
AUC(0-inf) (in vivo; male, SD, iv, 1 mg/kg): 257 µg·h/mL
AUC(0-t) (in vivo; male, SD, iv, 1 mg/kg): 254 µg·h/mL
MRT (in vivo; male, SD, iv, 1 mg/kg): 21.4 h
Vd (in vivo; male, SD, iv, 1 mg/kg): 0.0891 L/kg
clearance (in vivo; male, SD, iv, 1 mg/kg): 4.24 mL/h/kg
half-life (in vivo; male, SD, iv, 1 mg/kg): 834 min
bioavailability (in vivo; male, SD, sc): 31.8%
AUC(0-inf) (in vivo; male, SD, sc, 3 mg/kg): 245 µg·h/mL
AUC(0-t) (in vivo; male, SD, sc, 3 mg/kg): 243 µg·h/mL
CL/F (in vivo; male, SD, sc, 3 mg/kg): 0.204 mL/min/kg
Cmax (in vivo; male, SD, sc, 3 mg/kg): 4880 ng/mL
MRT (in vivo; male, SD, sc, 3 mg/kg): 32.3 h
Tmax (in vivo; male, SD, sc, 3 mg/kg): 24 h
half-life (in vivo; male, SD, sc, 3 mg/kg): 936 min
AUC0-t /AUC0-inf (in vivo; iv, 1 mg/kg): 0.989
Kel (in vivo; iv, 1 mg/kg): 0.0504 h⁻¹
AUC0-t /AUC0-inf (in vivo; sc, 3 mg/kg): 0.993
Vz/F (in vivo; sc, 3 mg/kg): 0.276 L/kg
SMILES: CC[C@H](C)[C@H](NC(=O)[C@H](Cc1ccccc1)NC(=O)[C@H](C)NC(=O)[C@@H]1CCCCNC(=O)CN(C(=O)CCCNC(=O)COCCOCCNC(=O)COCCOCCNC(=O)CC[C@H](NC(=O)CCCCCCCCCCCCCCCCCCC(=O)O)C(=O)O)CC(=O)NCCCC[C@H](NC(=O)[C@H](CCCCN)NC(=O)[C@H](CC(=O)O)NC(=O)[C@H](CC(C)C)NC(=O)[C@](C)(CC(C)C)NC(=O)[C@@H](NC(=O)[C@H](CO)NC(=O)[C@H](Cc2ccc(O)cc2)NC(=O)[C@H](CC(=O)O)NC(=O)[C@H](CO)NC(=O)[C@@H](NC(=O)[C@H](Cc2ccccc2F)NC(=O)[C@@H](NC(=O)CNC(=O)[C@H](CCC(N)=O)NC(=O)C(C)(C)NC(=O)[C@@H](N)Cc2ccc(O)cc2)[C@@H](C)O)[C@@H](C)O)[C@@H](C)CC)C(=O)N[C@@H](C)C(=O)N[C@@H](CCC(N)=O)C(=O)N1)C(=O)N[C@@H](CCC(=O)O)C(=O)N[C@@H](Cc1ccc(O)cc1)C(=O)N[C@@H](CC(C)C)C(=O)N[C@@H](CC(C)C)C(=O)N[C@@H](C)C(=O)NCC(=O)NCC(=O)N1CCC[C@H]1C(=O)N[C@@H](CO)C(=O)N[C@@H](CO)C(=O)NCC(=O)N[C@@H](C)C(=O)N1CCC[C@H]1C(=O)N1CCC[C@H]1C(=O)N1CCC[C@H]1C(=O)N[C@@H](CO)C(N)=O [TG87]

— patent EP4790066A1, “GLP-1R/GIPR/GCGR TRIPLE AGONIST ANALOGUE AND USE THEREOF” (Shenzhen Bay Laboratory, priority 2023, dated 2025)
